Data: PubChem BioAssay AID1259411 (Chemical Carcinogenesis Research Information System (CCRIS), 2018)
Activity calls are given as the source filed them. The rule behind the calls is not given here.

Test system: rodent carcinogenicity bioassays, tumor incidence
Assay: CCRIS carcinogenicity studies
Outline: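 NCI-built, expert-reviewed records of carcinogenicity and related test outcomes (mutagenicity, tumor promotion/inhibition) compiled from published and report sources, historical span 1985-2011, not updated.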

SMILES: CC(CCl)OC(C)CCl (configuration not stated)
- carcinogen call (Species: MOUSE, Strain/Sex: B6C3F1/FEMALE, Route: GAVAGE, Dose: 0, 100, 200 MG/KG IN CORN OIL 5/WK FOR 103 WK, Dose: 0, 100, 200 MG/KG IN CORN OIL 5/WK FOR 103 WK, Tumor Site: Type of Lesion: LUNG: ALVEOLAR/BRONCHIOLAR ADENOMA, CARCINOMA): active; positive
- carcinogen call (Species: MOUSE, Strain/Sex: B6C3F1/MALE, Route: GAVAGE, Dose: 0, 100, 200 MG/KG IN CORN OIL 5/WK FOR 103 WK, Dose: 0, 100, 200 MG/KG IN CORN OIL 5/WK FOR 103 WK, Tumor Site: Type of Lesion: LUNG: ALVEOLAR/BRONCHIOLAR ADENOMA, CARCINOMA, LIVER: HEPATOCELLULAR ADENOMA, CARCINOMA): active; positive
- carcinogen call (Species: RAT, Strain/Sex: F344/FEMALE, Route: GAVAGE, Dose: 0, 100, 200 MG/KG IN CORN OIL, Dose: 0, 100, 200 MG/KG IN CORN OIL): inactive; negative
- carcinogen call (Species: RAT, Strain/Sex: F344/MALE, Route: GAVAGE, Dose: 0, 100, 200 MG/KG IN CORN OIL, Dose: 0, 100, 200 MG/KG IN CORN OIL): inactive; negative

SMILES: C[C@H]1CCCC(=O)CCC/C=C/c2cc(O)cc(O)c2C(=O)O1
- carcinogen call (Species: MOUSE, Strain/Sex: B6C3F1/FEMALE, Route: ORAL, Dose: 0, 50, 100 PPM IN DIET, Dose: 0, 50, 100 PPM IN DIET, Tumor Site: Type of Lesion: LIVER: HEPATOCELLULAR ADENOMA, CARCINOMA, PITUITARY GLAND: ADENOMA, CARCINOMA): active; positive
- carcinogen call (Species: MOUSE, Strain/Sex: B6C3F1/MALE, Route: ORAL, Dose: 0, 50, 100 PPM IN DIET, Dose: 0, 50, 100 PPM IN DIET, Tumor Site: Type of Lesion: PITUITARY GLAND: ADENOMA, CARCINOMA): active; positive
- carcinogen call (Species: RAT, Strain/Sex: F344/FEMALE, Route: ORAL, Dose: 0, 25, 50 PPM IN DIET, Dose: 0, 25, 50 PPM IN DIET): inactive; negative
- carcinogen call (Species: RAT, Strain/Sex: F344/MALE, Route: ORAL, Dose: 0, 25, 50 PPM IN DIET, Dose: 0, 25, 50 PPM IN DIET): inactive; negative

SMILES: Nc1ccn([C@@H]2O[C@H](CO)[C@@H](O)C2O)c(=O)n1 (some centres not stated)
- carcinogen call (Species: RAT, Strain/Sex: SPRAGUE-DAWLEY/FEMALE, Route: INTRAPERITONEAL, Dose: 0, 5, 25 MG/KG IN PHYSIOLOGICAL SALINE 5/WK FOR 72 WK (STUDY DURATION: LIFETIME), Dose: 0, 5, 25 MG/KG IN PHYSIOLOGICAL SALINE 5/WK FOR 72 WK (STUDY DURATION: LIFETIME)): inactive; negative
- carcinogen call (Species: RAT, Strain/Sex: SPRAGUE-DAWLEY/FEMALE, Route: INTRAPERITONEAL, Dose: 0, 500, 1500 MG/KG IN PHYSIOLOGICAL SALINE ON D 1, 3, 5 WITHIN 3 MO, CYCLE REPEATED 6 TIMES (STUDY DURATION: LIFETIME), Dose: 0, 500, 1500 MG/KG IN PHYSIOLOGICAL SALINE ON D 1, 3, 5 WITHIN 3 MO, CYCLE REPEATED 6 TIMES (STUDY DURATION: LIFETIME)): inactive; negative
- carcinogen call (Species: RAT, Strain/Sex: SPRAGUE-DAWLEY/MALE, Route: INTRAPERITONEAL, Dose: 0, 5, 25 MG/KG IN PHYSIOLOGICAL SALINE 5/WK FOR 72 WK (STUDY DURATION: LIFETIME), Dose: 0, 5, 25 MG/KG IN PHYSIOLOGICAL SALINE 5/WK FOR 72 WK (STUDY DURATION: LIFETIME)): inactive; negative
- carcinogen call (Species: RAT, Strain/Sex: SPRAGUE-DAWLEY/MALE, Route: INTRAPERITONEAL, Dose: 0, 500, 1500 MG/KG IN PHYSIOLOGICAL SALINE ON D 1, 3, 5 WITHIN 3 MO, CYCLE REPEATED 6 TIMES (STUDY DURATION: LIFETIME), Dose: 0, 500, 1500 MG/KG IN PHYSIOLOGICAL SALINE ON D 1, 3, 5 WITHIN 3 MO, CYCLE REPEATED 6 TIMES (STUDY DURATION: LIFETIME)): inactive; negative

SMILES: Cn1c(N)nc2c3ccc(=O)[nH]c3ccc21
- carcinogen call (Species: MOUSE, Strain/Sex: CD-1/FEMALE, Route: INTRAPERITONEAL, ORAL, Dose: 0, 5 µL OF A 21.7 MG/ML SOLUTION IN DMSO ON DAYS 1, 3, 5, 7, 10, 13, 17, 21, 24 AND 28 OF LIFE THEN 2/WK TO WK 10 FOLLOW, Tumor Site: Type of Lesion: LIVER: CARCINOMA): active; positive
- carcinogen call (Species: MOUSE, Strain/Sex: CD-1/MALE, Route: INTRAPERITONEAL, ORAL, Dose: 0, 5 µL OF A 21.7 MG/ML SOLUTION IN DMSO ON DAYS 1, 3, 5, 7, 10, 13, 17, 21, 24 AND 28 OF LIFE THEN 2/WK TO WK 10 FOLLOW): inactive; negative
- carcinogen call (Species: RAT, Strain/Sex: F344/MALE, Route: INTRARECTAL, Dose: 0, 54.8 MG/KG IN 1.7 ML/KG DMSO INFUSED 3/WK FOR 2 MO THEN 2/WK FOR DURATION OF STUDY (STUDY DURATION: 21 MO)): inactive; negative

SMILES: Clc1ccc(-c2cc(Cl)c(Cl)c(Cl)c2)cc1Cl
- carcinogen call (Species: RAT, Strain/Sex: SPRAGUE-DAWLEY/FEMALE, Route: GAVAGE, Dose: 0, 30, 100, 175, 300, 550, 1000 NG/KG BW 5 D/WK FOR 2 YRS, Dose: 0, 30, 100, 175, 300, 550, 1000 NG/KG BW 5 D/WK FOR 2 YRS, Tumor Site: Type of Lesion: LIVER: CHOLANGIOCARCINOMA, HEPATOCELLULAR ADENOMA OR CARCINOMA): active; positive
- carcinogen call (Species: RAT, Strain/Sex: SPRAGUE-DAWLEY/FEMALE, Route: GAVAGE, Dose: 0, 30, 100, 175, 300, 550, 1000 NG/KG BW 5 D/WK FOR 2 YRS, Dose: 0, 30, 100, 175, 300, 550, 1000 NG/KG BW 5 D/WK FOR 2 YRS, Tumor Site: Type of Lesion: LUNG: CYSTIC KERATINIZING EPITHELIOMA): active; positive
- carcinogen call (Species: RAT, Strain/Sex: SPRAGUE-DAWLEY/FEMALE, Route: GAVAGE, Dose: 0, 30, 100, 175, 300, 550, 1000 NG/KG BW 5 D/WK FOR 2 YRS, Dose: 0, 30, 100, 175, 300, 550, 1000 NG/KG BW 5 D/WK FOR 2 YRS, Tumor Site: Type of Lesion: ORAL CAVITY: SQUAMOUS CELL CARCINOMA): active; positive
- carcinogen call (Species: RAT, Strain/Sex: SPRAGUE-DAWLEY/FEMALE, Route: GAVAGE, Dose: 1000 NG/KG BW 5 D/WK FOR 30 WKS (STUDY DURATION: 2 YRS)): inactive; negative
- carcinogen call (Species: RAT, Strain/Sex: SPRAGUE-DAWLEY/FEMALE, Route: ORAL, Dose: 0, 30, 100, 175, 300, 550, 1000 NG/KG/D (STUDY DURATION: 2 YRS), Dose: 0, 30, 100, 175, 300, 550, 1000 NG/KG/D (STUDY DURATION: 2 YRS), Tumor Site: Type of Lesion: ORAL MUCOSA: SQUAMOUS CELL CARCINOMA): active; positive; highest dose only

SMILES: OCCN(CCO)CCO
- carcinogen call (Species: MOUSE, Route: ORAL, Tumor Site: Type of Lesion: LYMPHATIC SYSTEM): active; positive
- carcinogen call (Species: MOUSE, Strain/Sex: B6C3F1/FEMALE, Route: DERMAL, Dose: 0, 100, 300, 1000 MG/KG 5 D/WK FOR 104 -105 WKS (STUDY DURATION: 105 WKS), Dose: 0, 100, 300, 1000 MG/KG 5 D/WK FOR 104 -105 WKS (STUDY DURATION: 105 WKS), Tumor Site: Type of Lesion: LIVER: HEPATOCELLULAR ADENOMA OR CARCINOMA): active; positive
- carcinogen call (Species: MOUSE, Strain/Sex: B6C3F1/FEMALE, Route: ORAL, Dose: 0, 1, 2% IN DRINKING WATER FOR 82 WK (STUDY DURATION: 82 WK), Dose: 0, 1, 2% IN DRINKING WATER FOR 82 WK (STUDY DURATION: 82 WK)): inactive; negative
- carcinogen call (Species: MOUSE, Strain/Sex: B6C3F1/MALE, Route: DERMAL, Dose: 0, 200, 630, 2000 MG/KG 5D/WK FOR 104 WKS (STUDY DURATION: 104 WKS), Dose: 0, 200, 630, 2000 MG/KG 5D/WK FOR 104 WKS (STUDY DURATION: 104 WKS), Tumor Site: Type of Lesion: LIVER: HEMANGIOSARCOMA AT MEDIAN DOSE LEVEL): equivocal; p=0.047 at median dose for hemangiosarcoma
- carcinogen call (Species: MOUSE, Strain/Sex: B6C3F1/MALE, Route: ORAL, Dose: 0, 1, 2% IN DRINKING WATER FOR 82 WK (STUDY DURATION: 82 WK), Dose: 0, 1, 2% IN DRINKING WATER FOR 82 WK (STUDY DURATION: 82 WK)): inactive; negative
- carcinogen call (Species: RAT, Strain/Sex: F344/FEMALE, Route: DERMAL, Dose: 0, 32, 63, 125 MG/KG 5 D/WK FOR 103 WK (STUDY DURATION: 103 WK), Dose: 0, 32, 63, 125 MG/KG 5 D/WK FOR 103 WK (STUDY DURATION: 103 WK)): inactive; negative
- carcinogen call (Species: RAT, Strain/Sex: F344/MALE, Route: DERMAL, Dose: 0, 32, 63, 125 MG/KG 5 D/WK FOR 103 WK (STUDY DURATION: 103 WK), Dose: 0, 32, 63, 125 MG/KG 5 D/WK FOR 103 WK (STUDY DURATION: 103 WK), Tumor Site: Type of Lesion: KIDNEY: RENAL TUBULE ADENOMA): equivocal
